{"source": "patent US11058737B2", "about": "“Use of Euycoma longifolia extract in alleviating symptoms and/or conditions associated with hormonal imbalance in females” ([…] BERHAD, priority 2018, dated 2021)", "format_in_all_cases": "in vivo, Sprague Dawley rats", "key": {"ovariectomized rat model [1]": {"system": "ovariectomized rat model", "assay": "Uterus weight at necropsy", "conditions": "ovariectomized rats, 10 mg/kg intramuscular once every 4 weeks", "experimental": "(§1) 48 female Sprague dawley rats were ovariectomized or sham operated. Both sham and ovariectomized rats (n=8) received the vehicle. The remaining 3 group ovariectomized rats were orally administrated with Eurycoma longifolia aqueous extract 100 mg/kg, 300 mg/kg and 500 mg/kg b.w. The treatment continued for 8 weeks. Group 6 ovariectomized rats received testosterone undecanoate (10 mg/kg b.w) through the route of intramuscular injection once in every 4 weeks for 8 weeks. At week 8 of the last dose, sexual behaviors were recorded. Blood was collected for biochemical analysis. Calcium, phosphate, bone alkaline phosphatase (ALP), osteocalcin and hormone profile estimation was done. […]\n(§2) In Group 2, only ovariectomy was performed. […] 30 gms feed was added daily to each animal in the morning time and leftover feed was recorded on next day from the same animal cage. […]"}, "ovariectomized rat model [2]": {"system": "ovariectomized rat model", "assay": "Reproductive hormone levels in rat serum (FSH, LH, progesterone, estrogen, testosterone; CLIA)", "conditions": "ovariectomized rats, 10 mg/kg intramuscular once every 4 weeks, 8 weeks", "experimental": "(§3) The test item, i.e. aqueous extract of Eurycoma longifolia, was studied for its capabilities or effect in relation to the alleviation or treatment of menopause symptoms and hormonal activity against ovariectomized rat model in vivo.\n(§4) 48 female Sprague dawley rats were ovariectomized or sham operated. Both sham and ovariectomized rats (n=8) received the vehicle. The remaining 3 group ovariectomized rats were orally administrated with Eurycoma longifolia aqueous extract 100 mg/kg, 300 mg/kg and 500 mg/kg b.w. The treatment continued for 8 weeks. Group 6 ovariectomized rats received testosterone undecanoate (10 mg/kg b.w) through the route of intramuscular injection once in every 4 weeks for 8 weeks. At week 8 of the last dose, sexual behaviors were recorded. Blood was collected for biochemical analysis. Calcium, phosphate, bone alkaline phosphatase (ALP), osteocalcin and hormone profile estimation was done.\n(§5) Test System • Animal species: Rats • Strain: Sprague Dawley • Justification for Selection of Species: Recommended and Justified by sponsor • Sex: Female • Age: 10-12 weeks (Mohamed et al, 2016) • Source of supply: In house breed • No. of groups: 6 • Group 1: Sham operated group (surgically opened but no ovariectomy) • Group 2: Ovariectomy group (Negative control) • Group 3: Ovariectomy+Low dose extract • Group 4: Ovariectomy+Middle dose extract • Group 5: Ovariectomy+High dose extract • Group 6: Ovariectomy+Testosterone undecanoate (Positive control) • No. of Animals/Group: 8 females/group • Age at Treatment: 12 weeks • Body Weight Range at Receipt: 120-250 gms • Animal Identification: Each animal will be marked by picric acid and numbering will be given individually to each animal. • Acclimatization: The rats were acclimatized for 1 week before treatment.\n(§6) In Group 2, only ovariectomy was performed. Group 3, Group 4 and Group 5 received the Eurycoma longifolia aqueous extract daily at low dose (100 mg/kg), middle dose (300 mg/kg) and high dose (500 mg/kg) at respective concentrations orally for 8 weeks, whereas Group 6 received Testosterone undecanoate (10 mg/kg) intramuscular injection once in every 4 weeks for 8 weeks. • (i) Surgical Procedure • Anesthesia was induced by intraperitoneal injection of ketamine HCL (80 mg/kg) and the depth of anesthesia was checked by monitoring respiratory rate or simply testing the animal response to gentle pressure on the hind paws. After the onset of anesthesia, animal was placed under operating area. Clippers were used to clip the skin and shaved fur bilaterally to expose skin. The procedure was carried out by making two incisions to separately reach each ovary. Shaved skin was swab with 70% (v/v) ethanol. Anaesthetized animal was placed on the operating table with its back exposed and its tail towards the operator. A single dorsal incision (1 cm) was made penetrating the skin using small scissors. Incision was made in the lower back, directly below the bottom of the rib cage. Gently subcutaneous connective tissue was made free from the underlying muscle on each side using blunt forceps. Ovary was located under the thin muscle layer and a small incision (less than 1 cm) was made on each side to gain entry to the peritoneal cavity. The edge of the incision was holded securely with tooth forceps and the ovarian fat pad was retracted surrounding ovaries with blunt forceps to expose oviduct. […] 30 gms feed was added daily to each animal in the morning time and leftover feed was recorded on next day from the same animal cage. […]"}, "ovariectomized rats": {"system": "ovariectomized rats", "assay": "Clinical signs of toxicity and mortality in ovariectomized rat model", "conditions": "10 mg/kg intramuscular once every 4 weeks, 8 weeks", "experimental": "as §1, §2"}, "[3]": {"assay": "Body weight of ovariectomized rats", "conditions": "10 mg/kg intramuscular once every 4 weeks", "experimental": "as §4, §5\nas §6, with “oviduct. Ovary was removed by gently severing the oviduct, using sterile, small scissors. Uterus was replaced and remaining part of the oviduct back into the abdominal cavity. Muscle layer was sutured and procedure was repeated for the other ovary.” for “oviduct.”"}, "ovariectomized rat model [4]": {"system": "ovariectomized rat model", "assay": "Biochemical estimations: serum calcium, phosphate, bone alkaline phosphatase, osteocalcin", "conditions": "ovariectomized rats", "experimental": "as §3, §4, §5, §6"}, "[5]": {"conditions": "serum, 10 mg/kg intramuscular once every 4 weeks, 8 weeks, 10 mg/kg"}}}
{"compound": "CCCCCCCCCCC(=O)O[C@H]1CC[C@H]2[C@@H]3CCC4=CC(=O)CC[C@]4(C)[C@H]3CC[C@]12C", "note": "[Testosterone undecanoate]", "values": [{"measurement": "uterus weight, effect after ovariectomy", "setting": "ovariectomized rat model [1]", "value": "prevented the ovariectomy induced loss of uterus weight"}, {"measurement": "UTERUS WEIGHT", "setting": "ovariectomized rat model [1]; 8 weeks, 10 mg/kg", "value": "389.74 ± 8.26", "unit": "mg"}, {"measurement": "Estrogen", "setting": "ovariectomized rat model [2]", "value": "12.35 ± 0.25", "unit": "pg/mL"}, {"measurement": "FSH", "setting": "ovariectomized rat model [2]", "value": "3.96±0.22", "unit": "mlU/ml"}, {"measurement": "LH", "setting": "ovariectomized rat model [2]", "value": "3.76±0.11", "unit": "mlU/ml"}, {"measurement": "Progesterone", "setting": "ovariectomized rat model [2]", "value": "3.31 ± 0.15", "unit": "ng/mL"}, {"measurement": "Testosterone", "setting": "ovariectomized rat model [2]", "value": "13.01 ± 0.41", "unit": "ng/mL"}, {"measurement": "No. of Mortality/No. of Animals Dosed", "setting": "ovariectomized rats", "value": "0/8"}, {"measurement": "Body Weight", "setting": "[3]; Basal", "value": "185.0 ± 3.35"}, {"measurement": "Body Weight", "setting": "[3]; Week 1", "value": "196.0 ± 3.17"}, {"measurement": "Body Weight", "setting": "[3]; Week 2", "value": "207.4 ± 2.99"}, {"measurement": "Body Weight", "setting": "[3]; Week 3", "value": "217.8 ± 3.31"}, {"measurement": "Body Weight", "setting": "[3]; Week 4", "value": "229.4 ± 3.24"}, {"measurement": "Body Weight", "setting": "[3]; Week 5", "value": "238.6 ± 3.33"}, {"measurement": "Body Weight", "setting": "[3]; Week 6", "value": "244.8 ± 3.53"}, {"measurement": "Body Weight", "setting": "[3]; Week 7", "value": "252.9 ± 4.37"}, {"measurement": "Body Weight", "setting": "[3]; Week 8", "value": "259.3 ± 4.85"}, {"measurement": "Percentage of Weight Gain", "setting": "[3]; from basal to Week 1", "value": 5.95, "unit": "%"}, {"measurement": "Percentage of Weight Gain", "setting": "[3]; from basal to Week 2", "value": 12.11, "unit": "%"}, {"measurement": "Percentage of Weight Gain", "setting": "[3]; from basal to Week 3", "value": 17.73, "unit": "%"}, {"measurement": "Percentage of Weight Gain", "setting": "[3]; from basal to Week 4", "value": 24.00, "unit": "%"}, {"measurement": "Percentage of Weight Gain", "setting": "[3]; from basal to Week 5", "value": 28.97, "unit": "%"}, {"measurement": "Percentage of Weight Gain", "setting": "[3]; from basal to Week 6", "value": 32.32, "unit": "%"}, {"measurement": "Percentage of Weight Gain", "setting": "[3]; from basal to Week 7", "value": 36.70, "unit": "%"}, {"measurement": "Percentage of Weight Gain", "setting": "[3]; from basal to Week 8", "value": 40.16, "unit": "%"}, {"measurement": "serum osteocalcin levels, change", "setting": "ovariectomized rat model [4]; positive control 10 mg/kg intramuscular, no significant changes", "value": "Decreased serum osteocalcin levels"}, {"measurement": "Osteocalcin", "setting": "ovariectomized rat model [4]; serum, 10 mg/kg intramuscular once every 4 weeks, 8 weeks", "value": "7.26 ± 0.20", "unit": "ng/mL"}, {"measurement": "Bone Alkaline phosphatase", "setting": "ovariectomized rat model [4]; [5]", "value": "3.06 ± 0.12", "unit": "ng/mL"}, {"measurement": "Calcium", "setting": "ovariectomized rat model [4]; [5]", "value": "8.48 ± 0.16", "unit": "mg/dL"}, {"measurement": "Phosphate", "setting": "ovariectomized rat model [4]; [5]", "value": "3.29 ± 0.13", "unit": "mg/dL"}]}
